Experimental data: patent US12180207B2 (ARRAY BIOPHARMA INC., priority 2018, dated 2024)

What was measured:
[1] = biological target: FGFR3 (SEQ ID NO: 5, amino acids 449-759) (Homo sapiens (Human), UniProt P22607); assay: LC/MS FGFR3 kobs assay (covalent protein modification); assay type: binding; conditions: 500 nM FGFR3, 3 μM compound
Method: (§1) The LC/MS FGFR1 and FGFR3 kobs assays were conducted as follows. […] At each time point, the reaction was quenched with 20 μL of 0.4% formic acid. The extent of protein modification by each compound was determined by LC/MS on an Agilent Technologies 6520 Q-TOF LC/MS. Protein signals were then automatically deconvoluted using Agilent Masshunter software. Deconvoluted mass signals were exported to Tibco Spotfire data analysis program for further processing and normalization.
(§2) Data analysis included five steps. First, the signals for the “DMSO Controls” were analyzed to determine the percent of signal associated with unmodified FGFR1 or FGFR3 at each time point. Next, the percent of the signal associated with the covalent modification was determined. Third, the average nonmodified “DMSO Control” signal was used to normalize the modified protein signals at each time point. The percent of unmodified protein was fit to an exponential decay model where A0 is the Percent Unmodified at the start of the reaction, and kobs is the observed rate constant over the time period.
Table EC contains kobs values for compounds tested in these assays, presented as the average of multiple determinations if multiple determinations were made. ND=not determined.

[2] = biological target: dephosphorylated FGFR1 (SEQ ID NO: 1, amino acids 458 to 765) (Homo sapiens (Human), UniProt P11362); assay: FGFR enzyme binding assay (HTRF tracer displacement), FGFR1; conditions: 5 nM dephosphorylated FGFR1, average of multiple determinations if made
Method: (§3) The potency of compounds inhibiting human isoforms of FGFR kinase was determined using Life Technologies' Homogeneous Time Resolved Fluorescence (HTRF)-based binding assay technology. […] After a 60 minute incubation at 22° C., the extent of tracer displacement was determined using a PerkinElmer EnVision multimode plate reader via HTRF dual wavelength detection, and the percent of control (POC) was calculated using a ratiometric emission factor. One hundred POC was determined using no test compound, and 0 POC was determined in the presence of 1 μM of an appropriate control inhibitor.

[3] = biological target: recombinant human FGFR1 catalytic domain (amino acids 308-731) (Homo sapiens (Human), UniProt P11362); assay: FGFR1 enzyme activity assay (LanthaScreen TR-FRET); assay type: biochemical; conditions: 20 min incubation at 22° C., average of multiple determinations if made, read-out: FGFR1 Enz FRET IC50
Method: FGFR1 kinase activity was measured by the Invitrogen LanthaScreen™ Assay technology which directly measures the amount of substrate phosphorylation by Time-resolved fluorescence energy transfer (TR-FRET) using a fluorescently-labeled peptide and Europium-labeled antibody. Briefly, […] His-tagged recombinant human FGFR1 catalytic domain (amino acids 308-731) (Life Technologies Cat. No. PR4660A) was incubated with 100 nM Alexa Fluor® 647-Poly-GT Peptide Substrate (Life Technologies Cat. No. PV5836) and […] ATP along with test compound in a buffer consisting of 250 mM HEPES, 25 mM MgCl2, 0.05% TritonX-100, pH 7.5, and 2% DMSO. […] After a 20 minutes incubation at 22° C., an equal volume of 2 nM LanthaScreen® Eu-PY20 Antibody (Life Technologies Cat. No. PV5691) and 10 mM EDTA was added to quench the kinase reaction and start the detection reaction. After an additional 60 minute incubation at 22° C., the reaction was measured using a PerkinElmer EnVision multimode plate reader via TR-FRET dual wavelength detection, and the percent of control (POC) calculated using a ratiometric emission factor. 100 POC was determined using no test compounds and 0 POC was determined using no enzyme. The POC values were fit to a 4-parameter logistic curve as a function of the concentration of the compound, and the IC50 value is the point where the curve crosses 50 POC.

[4] = biological target: recombinant human FGFR2 cytoplasmic domain (amino acids 403-822) (Homo sapiens (Human), UniProt P21802); assay: FGFR2 enzyme activity assay (LanthaScreen TR-FRET); assay type: biochemical; conditions: 15 μM ATP, 20 min incubation at 22° C., average of multiple determinations if made, read-out: FGFR2 Enz FRET IC50
Method: FGFR2 kinase activity was measured by the Invitrogen LanthaScreen™ Assay technology which directly measures the amount of substrate phosphorylation by TR-FRET using a fluorescently-labeled peptide and Europium-labeled antibody. Briefly, […] His-tagged recombinant human FGFR2 cytoplasmic domain (amino acids 403-822) (Life Technologies Cat. No. PR5332A) was incubated with 100 nM Alexa Fluor® 647-Poly-GT Peptide Substrate (Life Technologies Cat. No. PV5836) and 15 μM ATP along with test compound in a buffer consisting of 250 mM HEPES, 25 mM MgCl2, 0.05% TritonX-100, pH 7.5, and 2% DMSO. […] After a 20 minute incubation at 22° C., an equal volume of 2 nM LanthaScreen® Eu-PY20 Antibody (Life Technologies Cat. No. PV5691) and 10 mM EDTA were added to quench the kinase reaction and start the detection reaction. After an additional 60 minute incubation at 22° C., the reaction was measured using a PerkinElmer EnVision multimode plate reader via TR-FRET dual wavelength detection, and the percent of control (POC) calculated using a ratiometric emission factor. 100 POC was determined using no test compounds and 0 POC was determined using no enzyme. The POC values were fit to a 4-parameter logistic curve as a function of the concentration of the compound, and the IC50 value is the point where the curve crosses 50 POC.

[5] = biological target: phosphorylated FGFR3 (SEQ ID NO: 5, amino acids 449 to 759) (Homo sapiens (Human), UniProt P22607); assay: FGFR enzyme binding assay (HTRF tracer displacement), FGFR3; conditions: 5 nM phosphorylated FGFR3, average of multiple determinations if made
Method: as §3

[6] = biological target: recombinant human FGFR3 (amino acids R397-T806) (Homo sapiens (Human), UniProt P22607); assay: FGFR3 enzyme activity assay (LanthaScreen TR-FRET); assay type: biochemical; conditions: 25 μM ATP, 10 min incubation at 22° C., average of multiple determinations if made, read-out: FGFR3 Enz FRET IC50
Method: FGFR3 kinase activity was measured by the Invitrogen LanthaScreen™ Assay technology which directly measures the amount of substrate phosphorylation by TR-FRET using a fluorescently-labeled peptide and Europium-labeled antibody. Briefly, […] N-terminal GST-HIS6 fusion protein with a 3C cleavage site recombinant human FGFR3 (amino acids R397-T806) (ProQinase Cat. No. 1068-0000-1) was incubated with 100 nM Alexa Fluor® 647-Poly-GT Peptide Substrate (Life Technologies Cat. No. PV5836) and 25 μM ATP along with test compound in a buffer consisting of 250 mM HEPES, 25 mM MgCl2, 0.05% TritonX-100, pH 7.5, and 2% DMSO. […] After a 10 minute incubation at 22° C., an equal volume of 2 nM LanthaScreen® Eu-PY20 Antibody (Life Technologies Cat. No. PV5691) and 10 mM EDTA were added to quench the kinase reaction and start the detection reaction. After an additional 60 minute incubation at 22° C., the reaction was measured using a PerkinElmer EnVision multimode plate reader via TR-FRET dual wavelength detection, and the percent of control (POC) calculated using a ratiometric emission factor. 100 POC was determined using no test compounds and 0 POC was determined using no enzyme. The POC values were fit to a 4-parameter logistic curve as a function of the concentration of the compound, and the IC50 value is the point where the curve crosses 50 POC.

[7] = biological target: FGFR1 (SEQ ID NO: 1, amino acids 458-765) (Homo sapiens (Human), UniProt P11362); assay: LC/MS FGFR1 kobs assay (covalent protein modification); assay type: binding; conditions: 500 nM FGFR1, 3 μM compound
Method: as §1, §2

Sequence of recombinant human FGFR2 cytoplasmic domain (amino acids 403-822) (P21802 402-821): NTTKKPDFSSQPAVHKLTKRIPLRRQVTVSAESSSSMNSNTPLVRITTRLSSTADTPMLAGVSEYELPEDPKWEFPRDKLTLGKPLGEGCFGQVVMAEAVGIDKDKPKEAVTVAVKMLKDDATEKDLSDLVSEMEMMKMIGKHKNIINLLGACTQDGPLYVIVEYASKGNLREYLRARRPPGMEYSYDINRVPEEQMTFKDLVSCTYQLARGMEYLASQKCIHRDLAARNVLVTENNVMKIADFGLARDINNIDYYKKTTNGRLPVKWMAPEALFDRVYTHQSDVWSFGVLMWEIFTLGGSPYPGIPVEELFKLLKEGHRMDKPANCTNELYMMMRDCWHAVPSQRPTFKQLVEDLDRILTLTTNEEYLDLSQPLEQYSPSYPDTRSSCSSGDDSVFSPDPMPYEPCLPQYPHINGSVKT
Sequence of recombinant human FGFR1 catalytic domain (amino acids 308-731) (P11362 other isoform, or with tags, fused parts or gaps): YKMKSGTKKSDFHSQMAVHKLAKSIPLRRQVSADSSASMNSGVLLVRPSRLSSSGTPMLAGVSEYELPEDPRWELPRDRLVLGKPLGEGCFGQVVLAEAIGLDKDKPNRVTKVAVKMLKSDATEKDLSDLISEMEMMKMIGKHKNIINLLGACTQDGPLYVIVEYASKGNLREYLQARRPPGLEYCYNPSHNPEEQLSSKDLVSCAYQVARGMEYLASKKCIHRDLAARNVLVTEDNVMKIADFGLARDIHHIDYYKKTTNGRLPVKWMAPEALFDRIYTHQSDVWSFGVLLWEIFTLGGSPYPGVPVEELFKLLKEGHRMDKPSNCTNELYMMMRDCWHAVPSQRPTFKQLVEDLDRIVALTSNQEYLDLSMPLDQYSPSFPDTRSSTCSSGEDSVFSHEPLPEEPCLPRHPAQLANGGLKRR
Sequence of phosphorylated FGFR3 (SEQ ID NO: 5, amino acids 449 to 759) (P22607 449-759): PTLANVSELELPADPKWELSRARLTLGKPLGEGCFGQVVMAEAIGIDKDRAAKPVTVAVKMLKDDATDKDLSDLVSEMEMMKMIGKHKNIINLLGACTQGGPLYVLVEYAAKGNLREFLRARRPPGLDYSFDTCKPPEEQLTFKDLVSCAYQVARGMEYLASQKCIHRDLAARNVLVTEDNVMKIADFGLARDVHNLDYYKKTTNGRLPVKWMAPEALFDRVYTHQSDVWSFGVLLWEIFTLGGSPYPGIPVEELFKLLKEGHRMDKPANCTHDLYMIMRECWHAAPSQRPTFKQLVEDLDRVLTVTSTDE
Sequence of FGFR3 (SEQ ID NO: 5, amino acids 449-759) (P22607 449-759): as above
Sequence of recombinant human FGFR3 (amino acids R397-T806) (P22607 397-806): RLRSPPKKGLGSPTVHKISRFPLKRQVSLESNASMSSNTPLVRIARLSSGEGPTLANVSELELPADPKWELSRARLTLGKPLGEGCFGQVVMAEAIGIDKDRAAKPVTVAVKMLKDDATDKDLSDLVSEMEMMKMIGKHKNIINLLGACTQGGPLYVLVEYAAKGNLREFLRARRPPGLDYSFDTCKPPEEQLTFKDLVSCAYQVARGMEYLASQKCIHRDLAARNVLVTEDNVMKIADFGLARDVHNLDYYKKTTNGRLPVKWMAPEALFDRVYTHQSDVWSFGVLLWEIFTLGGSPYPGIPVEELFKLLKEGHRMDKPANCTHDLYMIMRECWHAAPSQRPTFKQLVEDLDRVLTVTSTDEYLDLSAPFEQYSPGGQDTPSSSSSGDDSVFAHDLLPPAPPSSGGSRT
Sequence of FGFR1 (SEQ ID NO: 1, amino acids 458-765) (P11362 458-765): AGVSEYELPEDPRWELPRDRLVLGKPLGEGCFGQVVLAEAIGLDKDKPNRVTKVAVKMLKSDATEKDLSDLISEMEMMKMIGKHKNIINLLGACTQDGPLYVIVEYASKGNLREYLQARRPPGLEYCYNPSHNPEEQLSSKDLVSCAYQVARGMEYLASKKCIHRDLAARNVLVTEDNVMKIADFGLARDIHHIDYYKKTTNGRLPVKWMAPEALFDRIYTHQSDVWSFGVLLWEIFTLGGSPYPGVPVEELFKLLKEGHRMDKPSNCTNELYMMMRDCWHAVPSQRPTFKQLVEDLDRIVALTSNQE
Sequence of dephosphorylated FGFR1 (SEQ ID NO: 1, amino acids 458 to 765) (P11362 458-765): as above

SMILES | FGFR3 Enz kobs [1] | IC50 [2] | IC50 [3] | IC50 [4] | IC50 [5] | IC50 [6] | FGFR1 Enz kobs [7]
C=CC(=O)N1CCC[C@@H](C(=O)N2CCC(n3cc(-c4cc(OC)c5c(C#N)cnn5c4)cn3)CC2)C1 [Example 17, (R)-6-(1-(1-(1-acryloylpiperidine-3-carbonyl)piperidin-4-yl)-1H-pyrazol-4-yl)-4-methoxypyrazolo[1,5-a]pyridine-3-carbonitrile] | 0.00163 min⁻¹ | 45 nM | 17 nM | 7 nM | 8 nM | 6 nM | 0.00041 min⁻¹
C=CC(=O)N1CCN(c2cccc(-n3cc(-c4cc(OC)c5c(C#N)cnn5c4)cn3)c2)CC1 [Example 27, 6-(1-(3-(4-acryloylpiperazin-1-yl)phenyl)-1H-pyrazol-4-yl)-4-methoxypyrazolo[1,5-a]pyridine-3-carbonitrile] | 0.00184 min⁻¹ | 191 nM | 63 nM | 13 nM | 44 nM | 21 nM | 0.00017 min⁻¹
C=CC(=O)N1CC2(CC(C(=O)N3CCC(n4cc(-c5cc(OC)c6c(C#N)cnn6c5)cn4)CC3)C2)C1 [Example 47, 6-(1-(1-(2-acryloyl-2-azaspiro[3.3]heptane-6-carbonyl)piperidin-4-yl)-1H-pyrazol-4-yl)-4-methoxypyrazolo[1,5-a]pyridine-3-carbonitrile] | 0.00501 min⁻¹ | 177 nM | 35 nM | 5 nM | 22 nM | 4 nM | 0.00093 min⁻¹
C=CC(=O)N1CCC2(CC1)CC(C(=O)N1CCC(n3cc(-c4cc(OC)c5c(C#N)cnn5c4)cn3)CC1)C2 [Example 48, 6-(1-(1-(7-acryloyl-7-azaspiro[3.5]nonane-2-carbonyl)piperidin-4-yl)-1H-pyrazol-4-yl)-4-methoxypyrazolo[1,5-a]pyridine-3-carbonitrile] | 0.00114 min⁻¹ | 109 nM | 11 nM | 3 nM | 25 nM | 7 nM | 0.00071 min⁻¹
C=CC(=O)N1CC[C@H](C(=O)N2CC[C@@H](n3cc(-c4cc(OC)c5c(C#N)cnn5c4)cn3)C2)C1 [Example 57, 6-(1-((R)-1-((S)-1-acryloylpyrrolidine-3-carbonyl)pyrrolidin-3-yl)-1H-pyrazol-4-yl)-4-methoxypyrazolo[1,5-a]pyridine-3-carbonitrile] | 0.0015 min⁻¹ | 214 nM | 34 nM | 7 nM | 25 nM | 6 nM | 0.00051 min⁻¹
C=CC(=O)N1CC[C@@H](C(=O)N2CC[C@@H](n3cc(-c4cc(OC)c5c(C#N)cnn5c4)cn3)C2)C1 [Example 58, 6-(1-((R)-1-((R)-1-acryloylpyrrolidine-3-carbonyl)pyrrolidin-3-yl)-1H-pyrazol-4-yl)-4-methoxypyrazolo[1,5-a]pyridine-3-carbonitrile] | 0.00158 min⁻¹ | 290 nM | 55 nM | 8 nM | 41 nM | 8 nM | 0.00058 min⁻¹
C=CC(=O)N1CCC[C@H](C(=O)N2CC[C@H](n3cc(-c4cc(OC)c5c(C#N)cnn5c4)cn3)C2)C1 [Example 63, 6-(1-((S)-1-((S)-1-acryloylpiperidine-3-carbonyl)pyrrolidin-3-yl)-1H-pyrazol-4-yl)-4-methoxypyrazolo[1,5-a]pyridine-3-carbonitrile] | 0.0013 min⁻¹ | 199 nM | 26 nM | 7 nM | 62 nM | 3 nM | 0.0005 min⁻¹
C=CC(=O)Nc1cccc(C(=O)N2CC[C@H](n3cc(-c4cc(OC)c5c(C#N)cnn5c4)cn3)C2)c1 [Example 67, (S)-N-(3-(3-(4-(3-cyano-4-methoxypyrazolo[1,5-a]pyridin-6-yl)-1H-pyrazol-1-yl)pyrrolidine-1-carbonyl)phenyl)acrylamide] | 0.00341 min⁻¹ | 47 nM | 8 nM | 3 nM | 12 nM | 5 nM | 0.00146 min⁻¹
C=CC(=O)N1CC[C@@H](C(=O)N2CC[C@H](n3cc(-c4cc(OC)c5c(C#N)cnn5c4)cn3)C2)C1 [Example 72, 6-(1-((S)-1-((R)-1-acryloylpyrrolidine-3-carbonyl)pyrrolidin-3-yl)-1H-pyrazol-4-yl)-4-methoxypyrazolo[1,5-a]pyridine-3-carbonitrile] | 0.00117 min⁻¹ | 36 nM | 25 nM | 5 nM | 7 nM | 3 nM | 0.00049 min⁻¹
